{"source": "patent US8153441B2", "about": "“Method for analyzing structure and purity of serotonin transporter imaging agent [123 I] ADAM and precursor SnADAM” (Institute of Nuclear Energy Research Atomic Energy Council, priority 2008, dated 2012)", "key": {"[1]": {"assay": "Solution stability experiment of SnADAM-MeOH solution (HPLC purity after storage at room temperature)", "format": "physicochemical", "conditions": "for Purity of tested samples: room temperature", "protocol": "15.3 ppm, 153 ppm and 306 ppm SnADAM (test sample)-MeOH solutions were prepared and stored at room temperature for three days, and then continuously subjected to HPLC analysis. Meanwhile, a portion of fresh 10-320 ppm SnADAM-MeOH solution is prepared each day to serve as calibration standard sample. The SnADAM chromatographic peak retention time (tR), linear least square regression equation, correlation coefficient (r), purity of the test sample, SD, and RSD of the calibration sample were calculated. Referring to Table 5, the linear correlation coefficients of the fresh calibration standards prepared in three days were all greater than 0.9996. After the test sample was stored at room temperature for three days, the SnADAM retention time RSD=0.31%, and the mean purity RSD=0.05%."}, "[2]": {"assay": "Forced degradation experiment of SnADAM (HPLC)", "format": "physicochemical", "protocol": "Three portions of 0.50 mg SnADAM were dissolved in MeOH solvent, respectively added with 1 M HCl solution, 1 M NaOH solution, and 3% H2O2 solution, and then reacted at room temperature for 30 min. The first two portions of solutions were respectively neutralized with 1 M NaOH and 1 M HCl and then added with suitable amounts of MeOH to dissolve the precipitate, while the third portion of solution was directly diluted with a suitable amount of MeOH after the reaction and then subjected to HPLC analysis. Another portion of 0.50 mg SnADAM was heated in an oven at 80° C. for 30 min, dissolved in MeOH solvent, and then subjected to HPLC analysis. […] Therefore, SnADAM can be separated from the impurities (as shown in FIG. 2) and the degradation products (as shown in FIGS. 3A-3D) without interfering with the quantitative results."}}}
{"smiles": "CCC[CH2][Sn]([CH2]CCC)([CH2]CCC)[c]1ccc(Sc2ccccc2CN(C)C)c(N)c1", "note": "[SnADAM, 2-((2-((Dimethylamino)methyl)phenyl)thio)-5-(tri-n-butyltin)-phenylamine]", "values": [{"measurement": "Purity of tested samples", "setting": "[1]; SnADAM-MeOH solution 15.3 ppm, day 1", "value": "98.17 ± 0.17 (0.18%, n = 3)"}, {"measurement": "Purity of tested samples", "setting": "[1]; SnADAM-MeOH solution 15.3 ppm, day 2", "value": "98.12 ± 0.21 (0.21%, n = 3)"}, {"measurement": "Purity of tested samples", "setting": "[1]; SnADAM-MeOH solution 15.3 ppm, day 3", "value": "97.96 ± 0.73 (0.74%, n = 3)"}, {"measurement": "Purity of tested samples", "setting": "[1]; SnADAM-MeOH solution 153.0 ppm, day 1", "value": "97.12 ± 0.15 (0.15%, n = 3)"}, {"measurement": "Purity of tested samples", "setting": "[1]; SnADAM-MeOH solution 153.0 ppm, day 2", "value": "97.00 ± 0.25 (0.26%, n = 3)"}, {"measurement": "Purity of tested samples", "setting": "[1]; SnADAM-MeOH solution 153.0 ppm, day 3", "value": "97.12 ± 0.04 (0.04%, n = 3)"}, {"measurement": "Purity of tested samples", "setting": "[1]; SnADAM-MeOH solution 306.0 ppm, day 1", "value": "96.77 ± 0.07 (0.07%, n = 3)"}, {"measurement": "Purity of tested samples", "setting": "[1]; SnADAM-MeOH solution 306.0 ppm, day 2", "value": "96.73 ± 0.06 (0.06%, n = 3)"}, {"measurement": "Purity of tested samples", "setting": "[1]; SnADAM-MeOH solution 306.0 ppm, day 3", "value": "96.70 ± 0.20 (0.20%, n = 3)"}, {"measurement": "Stability of SnADAM-MeOH solution (change in purity)", "setting": "[1]; stored at room temperature for three days", "value": "no significant change in purity"}, {"measurement": "Forced degradation", "setting": "[2]; 1 M HCl solution, room temperature, 30 min", "value": "two major degradation products FD1 (tR=1.55 min) and FD2 (tR=1.80 min)"}, {"measurement": "Forced degradation", "setting": "[2]; 1 M NaOH solution, room temperature, 30 min", "value": "a major degradation product FD1 (tR=1.55 min)"}, {"measurement": "Forced degradation", "setting": "[2]; 3% H2O2 solution, room temperature, 30 min", "value": "a major degradation product FD1 (tR=1.55 min) having the same retention time as H2O2"}, {"measurement": "Forced degradation", "setting": "[2]; heated in an oven at 80° C. for 30 min", "value": "little effect on the degradation"}]}
